Source: patent US20240270762A1, “PENICILLIN-BINDING PROTEIN INHIBITORS” (priority 2021, published 2024)
In brackets after ≈: the same amount, converted by molar mass.

How the values were obtained:
[1] = tested on: A. baumannii CDC-0083; test: microbe, parasite or virus in culture; type: cell-based; settings: Acinetobacter baumannii, CDC0083, read-out: MIC, A. baumannii CDC-0083
[2] = tested on: P. aeruginosa CDC-0054; test: microbe, parasite or virus in culture; type: cell-based; settings: Pseudomonas aeruginosa, CDC0054, read-out: Minimum inhibitory concentration, P. aeruginosa CDC-0054
[3] = tested on: A. baumannii CDC-0033; test: microbe, parasite or virus in culture; type: cell-based; settings: Acinetobacter baumannii, CDC0033, read-out: MIC, A. baumannii CDC-0033
[4] = tested on: P. aeruginosa CDC-0095; test: microbe, parasite or virus in culture; type: cell-based; settings: Pseudomonas aeruginosa, CDC0095, read-out: Minimum inhibitory concentration, P. aeruginosa CDC-0095
[5] = tested on: B. thailandensis ATCC 700388; test: microbe, parasite or virus in culture; type: cell-based; settings: Burkholderia thailandensis, ATCC700388, read-out: Minimum inhibitory concentration (MIC), B. thailandensis ATCC 700388
[6] = tested on: A. baumannii CDC-0045; test: microbe, parasite or virus in culture; type: cell-based; settings: Acinetobacter baumannii, CDC0045, read-out: MIC, A. baumannii CDC-0045
[7] = target: T1, PBP3 from Escherichia coli (K-12) (Escherichia coli, UniProt P0AD68); test: Bocillin-FL fluorescence polarization competition binding, E. coli PBP3
T1 construct: made in house
Method in brief: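 Purified PBP was preincubated with inhibitor (E. coli PBP3 1.5 μM, 30 min; P. aeruginosa PBP3 0.75 μM, A. baumannii PBP3 0.2 μM and PBP1a 1 μM, 15 min), then Bocillin-FL (0.1 μM; 0.05 μM for PBP1a) added and FP read up to 60 min. EC50 = 50% loss of bound probe.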

[8] = tested on: P. aeruginosa ATCC 35151; test: microbe, parasite or virus in culture; type: cell-based; settings: Pseudomonas aeruginosa, ATCC35151, read-out: Minimum inhibitory concentration, P. aeruginosa ATCC 35151
[9] = tested on: B. humptydooensis ATCC BAA-2767; test: microbe, parasite or virus in culture; type: cell-based; settings: Burkholderia humptydooensis, ATCCBAA2767, read-out: Minimum inhibitory concentration (MIC), B. humptydooensis ATCC BAA-2767
[10] = tested on: P. aeruginosa ATCC 27853; test: microbe, parasite or virus in culture; type: cell-based; settings: Pseudomonas aeruginosa, ATCC27853, read-out: Minimum inhibitory concentration, P. aeruginosa ATCC 27853
[11] = tested on: P. aeruginosa CDC-0090; test: microbe, parasite or virus in culture; type: cell-based; settings: Pseudomonas aeruginosa, CDC0090, read-out: Minimum inhibitory concentration, P. aeruginosa CDC-0090
[12] = tested on: A. baumannii ATCC 19606; test: microbe, parasite or virus in culture; type: cell-based; settings: Acinetobacter baumannii, ATCC19606, read-out: MIC, A. baumannii ATCC 19606

T1 sequence (P0AD68 1-577): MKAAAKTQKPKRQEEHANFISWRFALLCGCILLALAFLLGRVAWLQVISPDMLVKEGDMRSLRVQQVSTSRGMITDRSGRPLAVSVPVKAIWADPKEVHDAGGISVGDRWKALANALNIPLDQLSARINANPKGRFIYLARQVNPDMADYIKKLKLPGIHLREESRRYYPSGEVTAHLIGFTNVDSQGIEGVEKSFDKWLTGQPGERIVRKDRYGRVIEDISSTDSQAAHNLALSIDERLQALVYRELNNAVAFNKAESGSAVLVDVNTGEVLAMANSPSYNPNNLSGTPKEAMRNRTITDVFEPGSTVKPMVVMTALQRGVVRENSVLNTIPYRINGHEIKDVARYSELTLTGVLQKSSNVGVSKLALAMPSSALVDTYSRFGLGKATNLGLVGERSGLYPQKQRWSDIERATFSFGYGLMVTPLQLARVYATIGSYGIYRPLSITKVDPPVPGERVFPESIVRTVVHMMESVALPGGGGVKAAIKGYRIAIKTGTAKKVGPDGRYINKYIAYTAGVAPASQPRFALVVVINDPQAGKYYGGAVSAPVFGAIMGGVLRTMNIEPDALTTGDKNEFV

Question: Which MIC [1] does the source give for O=C(NCCCN1CCN(C(=O)NC(C(=O)N[C@H]2Cc3ccc(F)c(C(=O)O)c3OB2O)c2cc(F)c(O)c(O)c2Cl)C(=O)C1=O)c1cc(O)cc(O)c1 (stereo partly drawn) [Example 423, (3R)-3-(2-(2-chloro-5-fluoro-3,4-dihydroxyphenyl)-2-(4-(3-(3,5-dihydroxybenzamido)propyl)-2,3-dioxopiperazine-1-carboxamido)acetamido)-7-fluoro-2-hydroxy-3,4-dihydro-2H-benzo[e][1,2]oxaborinine-8-carboxylic acid] here?
Answer: The MIC was greater than 128 µg/mL.

Question: And the MIC [2]?
Answer: Its MIC is less than 1 µg/mL.

Question: And the MIC [3]?
Answer: The MIC was 2 to 4 µg/mL (≈ 2.58 to 5.16 µM).

Question: And the MIC [4]?
Answer: The MIC was less than 1 µg/mL.

Question: What about the MIC [5] of the same molecule?
Answer: Its MIC is less than 1 µg/mL.

Question: And the MIC [6]?
Answer: Its MIC is less than 1 µg/mL.

Question: And the EC50 [7]?
Answer: The EC50 was less than 10 µM.

Question: What about the MIC [8] of the same molecule?
Answer: Its MIC is less than 1 µg/mL.

Question: And the MIC [9]?
Answer: The MIC was less than 1 µg/mL.

Question: And the MIC [10]?
Answer: The MIC was less than 1 µg/mL.

Question: What about the MIC [11] of the same molecule?
Answer: Its MIC is less than 1 µg/mL.

Question: What about the MIC [12] of the same molecule?
Answer: The MIC was less than 1 µg/mL.

Question: What does the source list for O=C(O)c1c(F)ccc2c1OB(O)[C@@H](NC(=O)C(NC(=O)N1CCN(C3CCN(C(=O)Nc4cccc(O)c4)CC3)C(=O)C1=O)c1cc(F)c(O)c(O)c1Cl)C2 (stereo partly drawn) [Example 424, (3R)-3-(2-(2-chloro-5-fluoro-3,4-dihydroxyphenyl)-2-(4-(1-((3-hydroxyphenyl)carbamoyl)piperidin-4-yl)-2,3-dioxopiperazine-1-carboxamido)acetamido)-7-fluoro-2-hydroxy-3,4-dihydro-2H-benzo[e][1,2]oxaborinine-8-carboxylic acid]?
Answer: MIC [1]: 2 to 4 µg/mL (≈ 2.5 to 4.99 µM); MIC [2]: < 1 µg/mL; MIC [3]: < 1 µg/mL; MIC [4]: < 1 µg/mL; MIC [5]: < 1 µg/mL; MIC [6]: < 1 µg/mL; EC50 [7]: < 10 µM; MIC [8]: < 1 µg/mL; MIC [9]: 2 to 4 µg/mL (≈ 2.5 to 4.99 µM); MIC [10]: < 1 µg/mL; MIC [11]: < 1 µg/mL; MIC [12]: < 1 µg/mL

Question: Which MIC [1] does the source give for O=C(O)c1c(F)ccc2c1OB(O)[C@@H](NC(=O)C(NC(=O)N1CCN(C3CCN(C(=O)c4cncc(O)c4)CC3)C(=O)C1=O)c1cc(F)c(O)c(O)c1Cl)C2 (stereo partly drawn) [Example 425, (3R)-3-(2-(2-chloro-5-fluoro-3,4-dihydroxyphenyl)-2-(4-(1-(5-hydroxynicotinoyl)piperidin-4-yl)-2,3-dioxopiperazine-1-carboxamido)acetamido)-7-fluoro-2-hydroxy-3,4-dihydro-2H-benzo[e][1,2]oxaborinine-8-carboxylic acid] here?
Answer: The MIC was 8 to 16 µg/mL (≈ 10.2 to 20.3 µM).

Question: And the MIC [2]?
Answer: The MIC was less than 1 µg/mL.

Question: What about the MIC [3] of the same molecule?
Answer: Its MIC is less than 1 µg/mL.

Question: And the MIC [4]?
Answer: Its MIC is 2 to 4 µg/mL (≈ 2.54 to 5.08 µM).

Question: What about the MIC [5] of the same molecule?
Answer: The MIC was less than 1 µg/mL.

Question: What about the MIC [6] of the same molecule?
Answer: The MIC was less than 1 µg/mL.

Question: What about the EC50 [7] of the same molecule?
Answer: Its EC50 is less than 10 µM.

Question: And the MIC [8]?
Answer: The MIC was less than 1 µg/mL.

Question: And the MIC [9]?
Answer: Its MIC is less than 1 µg/mL.

Question: And the MIC [10]?
Answer: Its MIC is less than 1 µg/mL.

Question: And the MIC [11]?
Answer: The MIC was less than 1 µg/mL.

Question: What about the MIC [12] of the same molecule?
Answer: Its MIC is less than 1 µg/mL.

Question: For O=C(O)c1c(F)ccc2c1OB(O)[C@@H](NC(=O)C(NC(=O)N1CCN(C3CCN(S(=O)(=O)c4cccc(O)c4)CC3)C(=O)C1=O)c1cc(F)c(O)c(O)c1Cl)C2 (stereo partly drawn) [Example 428, (3R)-3-(2-(2-chloro-5-fluoro-3,4-dihydroxyphenyl)-2-(4-(1-((3-hydroxyphenyl)sulfonyl)piperidin-4-yl)-2,3-dioxopiperazine-1-carboxamido)acetamido)-7-fluoro-2-hydroxy-3,4-dihydro-2H-benzo[e][1,2]oxaborinine-8-carboxylic acid], which MIC [1] is on record?
Answer: The MIC was 8 to 16 µg/mL (≈ 9.73 to 19.5 µM).

Question: What about the MIC [2] of the same molecule?
Answer: Its MIC is less than 1 µg/mL.

Question: And the MIC [3]?
Answer: The MIC was 2 to 4 µg/mL (≈ 2.43 to 4.87 µM).

Question: And the MIC [4]?
Answer: The MIC was 2 to 4 µg/mL (≈ 2.43 to 4.87 µM).

Question: What about the MIC [5] of the same molecule?
Answer: The MIC was greater than 128 µg/mL.

Question: And the MIC [6]?
Answer: The MIC was less than 1 µg/mL.

Question: What about the EC50 [7] of the same molecule?
Answer: Its EC50 is less than 10 µM.

Question: And the MIC [8]?
Answer: Its MIC is less than 1 µg/mL.

Question: And the MIC [9]?
Answer: The MIC was greater than 128 µg/mL.

Question: What about the MIC [10] of the same molecule?
Answer: The MIC was 2 to 4 µg/mL (≈ 2.43 to 4.87 µM).

Question: What about the MIC [11] of the same molecule?
Answer: Its MIC is less than 1 µg/mL.

Question: And the MIC [12]?
Answer: The MIC was less than 1 µg/mL.

Question: O=C(O)c1c(F)ccc2c1OB(O)[C@@H](NC(=O)C(NC(=O)N1CCN(C3CCN(S(=O)(=O)c4ccc(O)cc4)CC3)C(=O)C1=O)c1cc(F)c(O)c(O)c1Cl)C2 (stereo partly drawn) [Example 429, (3R)-3-(2-(2-chloro-5-fluoro-3,4-dihydroxyphenyl)-2-(4-(1-((4-hydroxyphenyl)sulfonyl)piperidin-4-yl)-2,3-dioxopiperazine-1-carboxamido)acetamido)-7-fluoro-2-hydroxy-3,4-dihydro-2H-benzo[e][1,2]oxaborinine-8-carboxylic acid] was tested. Which MIC [1] did it give?
Answer: Its MIC is 8 to 16 µg/mL (≈ 9.73 to 19.5 µM).

Question: And the MIC [2]?
Answer: Its MIC is less than 1 µg/mL.

Question: What about the MIC [3] of the same molecule?
Answer: The MIC was 2 to 4 µg/mL (≈ 2.43 to 4.87 µM).

Question: And the MIC [4]?
Answer: The MIC was 2 to 4 µg/mL (≈ 2.43 to 4.87 µM).

Question: What about the MIC [5] of the same molecule?
Answer: The MIC was 8 to 16 µg/mL (≈ 9.73 to 19.5 µM).

Question: What about the MIC [6] of the same molecule?
Answer: The MIC was less than 1 µg/mL.

Question: And the EC50 [7]?
Answer: The EC50 was less than 10 µM.

Question: And the MIC [8]?
Answer: The MIC was less than 1 µg/mL.

Question: What about the MIC [9] of the same molecule?
Answer: Its MIC is greater than 128 µg/mL.

Question: What about the MIC [10] of the same molecule?
Answer: The MIC was 2 to 4 µg/mL (≈ 2.43 to 4.87 µM).

Question: What about the MIC [11] of the same molecule?
Answer: Its MIC is less than 1 µg/mL.

Question: What about the MIC [12] of the same molecule?
Answer: The MIC was less than 1 µg/mL.

Question: With O=C(NCCCN1CCN(C(=O)NC(C(=O)N[C@H]2Cc3ccc(F)c(C(=O)O)c3OB2O)c2cc(F)c(O)c(O)c2Cl)C(=O)C1=O)c1ccnc(F)c1 (stereo partly drawn) [Example 466, (3R)-3-(2-(2-chloro-5-fluoro-3,4-dihydroxyphenyl)-2-(4-(3-(2-fluoroisonicotinamido)propyl)-2,3-dioxopiperazine-1-carboxamido)acetamido)-7-fluoro-2-hydroxy-3,4-dihydro-2H-benzo[e][1,2]oxaborinine-8-carboxylic acid] as the molecule, how does the MIC [1] read?
Answer: Its MIC is 2 to 4 µg/mL (≈ 2.62 to 5.24 µM).

Question: What about the MIC [2] of the same molecule?
Answer: The MIC was less than 1 µg/mL.

Question: What about the MIC [3] of the same molecule?
Answer: Its MIC is 2 to 4 µg/mL (≈ 2.62 to 5.24 µM).

Question: What about the MIC [4] of the same molecule?
Answer: Its MIC is 2 to 4 µg/mL (≈ 2.62 to 5.24 µM).

Question: What about the MIC [5] of the same molecule?
Answer: The MIC was 2 to 4 µg/mL (≈ 2.62 to 5.24 µM).

Question: And the MIC [6]?
Answer: Its MIC is 2 to 4 µg/mL (≈ 2.62 to 5.24 µM).

Question: What about the EC50 [7] of the same molecule?
Answer: Its EC50 is less than 10 µM.

Question: And the MIC [8]?
Answer: The MIC was less than 1 µg/mL.

Question: What about the MIC [9] of the same molecule?
Answer: The MIC was 8 to 16 µg/mL (≈ 10.5 to 21 µM).

Question: And the MIC [10]?
Answer: The MIC was 2 to 4 µg/mL (≈ 2.62 to 5.24 µM).

Question: What about the MIC [11] of the same molecule?
Answer: Its MIC is 2 to 4 µg/mL (≈ 2.62 to 5.24 µM).

Question: What about the MIC [12] of the same molecule?
Answer: The MIC was less than 1 µg/mL.
